Active and inactive are the calls of the source. No cut-off for these calls is given here. Peptide text beside a SMILES is read from it. * marks the point of attachment. Cbz = O=C(OCc1ccccc1)*
Columns and labels:
[1] = system: Human immunodeficiency virus 1; assay: Antiviral activity against VSVG pseudotyped HIV1 infected in HEK293 cells preincubated for 3 hrs followed by compound washout and subsequent compound redosing and measured after 72 hrs by luciferase reporter gene based assay; type: functional, organism-based; conditions: Human immunodeficiency virus 1, HEK293
[2] = Cytotoxicity against HEK293 cells assessed as cell viability by MTT assay; type: cell-based; conditions: human
[3] = molecular target: Virion infectivity factor (Human immunodeficiency virus type 1 group M subtype B (isolate NY5)(HIV-1)) (UniProt P12504); assay: Inhibition of HIV1 HA-tagged Vif expressed in HEK293T cells co-expressing Myc-tagged pcDNA-APOBEC3G and pcDNA-ubiquitin-His assessed as reduction in Vif-mediated A3G polyubiquitination at 10 uM measured after 16 hrs by Western blot analysis; type: cell-based; conditions: Human immunodeficiency virus 1, HEK-293T
[4] = molecular target: Virion infectivity factor (Human immunodeficiency virus type 1 group M subtype B (isolate NY5)(HIV-1)) (UniProt P12504); assay: Inhibition of HIV1 HA-tagged Vif expressed in HEK293T cells co-expressing Myc-tagged pcDNA-APOBEC3G assessed as reduction in Vif-mediated A3G degradation at 10 uM measured after 16 hrs by Western blot analysis; type: cell-based; conditions: Human immunodeficiency virus 1, HEK-293T
[5] = AUC (0 to 24 hrs) in monkey plasma at 20 mg/kg, po administered as single dose by LC-MS/MS analysis; type: ADME, organism-based, Macaca mulatta; set-up: dose 20 mg/kg, time < 24 hr, route oral; conditions: rhesus monkey
[6] = molecular target: Virion infectivity factor (Human immunodeficiency virus type 1 group M subtype B (isolate NY5)(HIV-1)) (UniProt P12504); assay: Inhibition of HIV1 HA-tagged Vif expressed in HEK293T cells co-expressing Myc-tagged pcDNA-APOBEC3G assessed as reduction in Vif-mediated A3G degradation at 10000 nM measured after 48 hrs by Western blot analysis; type: cell-based; conditions: Human immunodeficiency virus 1, HEK-293T
[7] = Tmax in monkey PBMC assessed as 3TC-TP level at 20 mg/kg, po administered as single dose by LC-MS/MS analysis; type: ADME, organism-based, Macaca mulatta; conditions: rhesus monkey, in vivo
[8] = system: Human immunodeficiency virus 1; assay: (§1) Antiviral activity against JRFL pseudotyped HIV1 infected in human Hut/CCR5 cells assessed as time needed to reach 50% reduction of virus infection at 10000 nM incubated with cells for 4 hrs prior to compound washout followed by viral infection and measured after 72 hrs by luciferase reporter gene assay; type: functional
[9] = AUC (0 to 24 hrs) in monkey PBMC assessed as 3TC-TP level at 20 mg/kg, po administered as single dose by LC-MS/MS analysis; type: ADME, organism-based, Macaca mulatta; set-up: time < 24 hr, dose 20 mg/kg, route oral; conditions: rhesus monkey, in vivo
[10] = molecular target: Virion infectivity factor (Human immunodeficiency virus type 1 group M subtype B (isolate NY5)(HIV-1)) (UniProt P12504); assay: Inhibition of HIV1 HA-tagged Vif expressed in HEK293T cells co-expressing eGFP-tagged pcDNA-APOBEC3G assessed as reduction in Vif-mediated A3G degradation at 10000 nM measured after 48 hrs by flow cytometry; type: cell-based; conditions: Human immunodeficiency virus 1, HEK-293T
[11] = Cmax in monkey plasma at 20 mg/kg, po administered as single dose by LC-MS/MS analysis; type: ADME, organism-based, Macaca mulatta; set-up: dose 20 mg/kg, route oral; conditions: rhesus monkey
[12] = Binding affinity to HIV1 Vif and CBFbeta-ELOB-ELOC complex (unknown origin) by CM5 chip based assay
[13] = Cmax in monkey plasma at 20 mg/kg, po administered as single dose measured after 72 hrs by LC-MS/MS analysis; type: ADME, organism-based, Macaca mulatta; set-up: dose 20 mg/kg, route oral; conditions: rhesus monkey
[14] = Cmax in monkey PBMC assessed as 3TC-TP level at 20 mg/kg, po administered as single dose by LC-MS/MS analysis; type: ADME, organism-based, Macaca mulatta; set-up: dose 20 mg/kg, route oral; conditions: rhesus monkey, in vivo
[15] = Tmax in monkey plasma at 20 mg/kg, po administered as single dose by LC-MS/MS analysis; type: ADME, organism-based, Macaca mulatta; conditions: rhesus monkey
[16] = Cytotoxicity against human Hut/CCR5 cells assessed as reduction in cell viability at 1000 to 10000 nM measured after 120 hrs by MTT assay; type: cell-based; conditions: 10 µM
[17] = system: Human immunodeficiency virus 1; assay: as §1, with “1000” for “10000”; type: functional

Virion infectivity factor (Human immunodeficiency virus type 1 group M subtype B (isolate NY5)(HIV-1)), sequence (P12504 whole entry): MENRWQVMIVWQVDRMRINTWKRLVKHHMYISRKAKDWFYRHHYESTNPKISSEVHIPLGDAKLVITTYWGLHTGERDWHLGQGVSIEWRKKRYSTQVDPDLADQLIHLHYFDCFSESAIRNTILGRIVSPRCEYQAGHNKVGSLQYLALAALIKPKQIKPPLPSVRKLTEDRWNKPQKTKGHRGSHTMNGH

Structure (SMILES): CNc1ccn([C@@H]2O[C@@](CO)(N=[N+]=[N-])[C@@H](O)[C@@H]2F)c(=O)n1
- EC50 [1]: 6.7 µM
- CC50 [2]: ≥ 25 µM

Structure (SMILES): CCNc1ccn([C@@H]2O[C@@](CO)(N=[N+]=[N-])[C@@H](O)[C@@H]2F)c(=O)n1
- EC50 [1]: > 10 µM

Structure (SMILES): [N-]=[N+]=N[C@]1(CO)O[C@@H](n2ccc(NC3CCCCC3)nc2=O)[C@@H](F)[C@@H]1O
- EC50 [1]: > 10 µM

Structure (SMILES): CN(C)c1ccn([C@@H]2O[C@@](CO)(N=[N+]=[N-])[C@@H](O)[C@@H]2F)c(=O)n1
- EC50 [1]: 13 µM
- CC50 [2]: ≥ 25 µM

Structure (SMILES): CCN(CC)c1ccn([C@@H]2O[C@@](CO)(N=[N+]=[N-])[C@@H](O)[C@@H]2F)c(=O)n1
- EC50 [1]: > 10 µM

Structure (SMILES): [N-]=[N+]=N[C@]1(CO)O[C@@H](n2ccc(N3CCCC3)nc2=O)[C@@H](F)[C@@H]1O
- EC50 [1]: > 10 µM

Structure (SMILES): [N-]=[N+]=N[C@]1(CO)O[C@@H](n2ccc(NCCCO)nc2=O)[C@@H](F)[C@@H]1O
- EC50 [1]: > 10 µM

Structure (SMILES): [N-]=[N+]=N[C@]1(CO)O[C@@H](n2ccc(NCc3cccnc3)nc2=O)[C@@H](F)[C@@H]1O
- EC50 [1]: 1.3 µM
- CC50 [2]: ≥ 25 µM

Structure (SMILES): COc1ccc(Nc2ccn([C@@H]3O[C@@](CO)(N=[N+]=[N-])[C@@H](O)[C@@H]3F)c(=O)n2)c(OC)c1
- EC50 [1]: 5.2 µM
- CC50 [2]: ≥ 25 µM

Structure (SMILES): [N-]=[N+]=N[C@]1(CO)O[C@@H](n2ccc(NO)nc2=O)[C@@H](F)[C@@H]1O
- EC50 [1]: 0.7 µM
- CC50 [2]: ≥ 25 µM

Structure (SMILES): [N-]=[N+]=N[C@]1(CO)O[C@@H](n2ccc(N(CCO)CCO)nc2=O)[C@@H](F)[C@@H]1O
- EC50 [1]: 0.8 µM
- CC50 [2]: ≥ 25 µM

Structure (SMILES): CCONc1ccn([C@@H]2O[C@@](CO)(N=[N+]=[N-])[C@@H](O)[C@@H]2F)c(=O)n1
- EC50 [1]: > 10 µM

Structure (SMILES): [N-]=[N+]=N[C@]1(CO)O[C@@H](n2ccc(NCc3ccco3)nc2=O)[C@@H](F)[C@@H]1O
- EC50 [1]: 0.7 µM
- CC50 [2]: ≥ 25 µM

Structure (SMILES): [N-]=[N+]=N[C@]1(CO)O[C@@H](n2ccc(N3CCOCC3)nc2=O)[C@@H](F)[C@@H]1O
- EC50 [1]: > 10 µM

Structure (SMILES): [N-]=[N+]=N[C@]1(CO)O[C@@H](n2ccc(NCCc3ccc(O)cc3)nc2=O)[C@@H](F)[C@@H]1O
- EC50 [1]: 5.7 µM
- CC50 [2]: ≥ 25 µM

Structure (SMILES): [N-]=[N+]=N[C@]1(CO)O[C@@H](n2ccc(NCCO)nc2=O)[C@@H](F)[C@@H]1O
- EC50 [1]: > 10 µM

Structure (SMILES): CON(C)c1ccn([C@@H]2O[C@@](CO)(N=[N+]=[N-])[C@@H](O)[C@@H]2F)c(=O)n1
- EC50 [1]: > 10 µM

Structure (SMILES): CONc1ccn([C@@H]2O[C@@](CO)(N=[N+]=[N-])[C@@H](O)[C@@H]2F)c(=O)n1
- EC50 [1]: > 10 µM

Structure (SMILES): CC(C)C[C@@H](C=O)NC(=O)[C@H](CC(C)C)NC(=O)[C@H](CC(C)C)NC(=O)OCc1ccccc1 (Cbz-Leu-Leu-Leu-aldehyde)
- inhibition [3]: Active
- inhibition [4]: Active

Structure (SMILES): Nc1ccn([C@@H]2CS[C@H](CO)O2)c(=O)n1 [LAMIVUDINE]
- AUC(0-t) at 24 h [5]: 395 µM·h
- EC50 [1]: 0.3 µM
- inhibition [6]: inactive
- Tmax [7]: 1 h
- Time [8]: 42.7 to 42.74 h
- AUC [9]: 0.00013 µM·h
- inhibition [10]: inactive
- CC50 [2]: ≥ 25 µM
- Cmax [11]: 31300 nM
- Kd [12]: 1.51 µM
- Cmax [13]: 93.6 nM
- Cmax [14]: 0.03 nM
- Tmax [15]: 1 h
- Activity [16]: Non-Toxic
- Time [17]: 26.75 h

Reference: ChEMBL document CHEMBL4619799, “Mechanistic Insight into Antiretroviral Potency of 2'-Deoxy-2'-β-fluoro-4'-azidocytidine (FNC) with a Long-Lasting Effect on HIV-1 Prevention” (J Med Chem, 2020)
